Measurements taken from patent EP1362858A1, “Pyrrolopyrimidinone derivates, process of preparation and use” (SK Chemicals Co., Ltd., priority 2002, dated 2003).

molecular target: rabbit platelet PDE V (Oryctolagus cuniculus, UniProt G1SX67); test: PDE V inhibition, PDE SPA assay kit with [3H]-cGMP; format: biochemical; settings: not given
Experimental: The rabbit platelet PDE V was prepared using the method described by Hidaka et al. (Biochim. Biophys. Acta., 429: 485 - 497, 1976) with minor modification. The plateletrich plasma (PRP) was prepared by centrifugation of freshly obtained heparinized whole blood at 360 g. Platelets were isolated from the PRP by centrifugation at 1,200 g. Platelet homogenates were prepared in the homogenization buffer (50 mM Tris-HCl buffer containing 1 mM MgCl2, pH 7.4) by sonication for 30 s per 1 mL. The homogenized solutions were then centrifuged at 40,000 × g for 2 h at 4 °C. The supernatant was loaded on the DEAE-cellulose column (20 mL bed volume, Sigma) pre-equilibrated with equilibration buffer (50 mM Tris-acetate containing 3.75 mM 2-mercaptoethanol, pH 6.0). The column was then washed with 60 mL of equilibration buffer. The PDE isozymes were eluted using a continuous gradient of 0 to 600 mM sodium acetate in the equilibration buffer (60 mL total volume). The 1.0 mL fractions were collected. A flow rate of 60 mL/h was used throughout the ion-exchange chromatography procedure. PDE activities on cAMP and cGMP were characterized as described below. The characterized fractions were pooled and stored at -80 °C until the inhibition studies.
The cyclic nucleotide PDE V activity was determined using PDE SPA assay kit (Amersham Pharmacia biotech, UK). Each reaction mixture (100 µL total volume) consisted of the column elute containing PDE V (10 µL), [^3H]-cGMP (5 µCi/mL), bovine serum albumin (0. 5 mg/mL), and MgCl2 (5 mM) in Tris-HCl buffer (15 mM, pH 7. 5). The reactions were initiated by the addition of PDE V and the samples were incubated at 30 °C for 30 min, after which the reaction was stopped by the addition of 50 µL of SPA beads. The reaction tube was then settled for 20 min and was counted on the scintillation counter (Tri-carb 1500, Packard, USA). For the inhibition study of PDE V activity, the test compounds were dissolved in dimethyl sulfoxide (DMSO) and was diluted with distilled water. The final concentration of DMSO was less than 0. 2% (v/v).

Row | SMILES | IC50 [nM]
1 | CCCOc1ccc(S(=O)(=O)N2CCN(CCOC(=O)Cc3ccccc3)CC2)cc1-c1nc2c(CCC)cn(CC)c2c(=O)[nH]1 [Example 24, 5-Ethyl-2-{5-[4-(2-phenylacetoxyethyl)piperazin-1-ylsulfonyl]-2-n-propoxyphenyl}-7-n-propyl-3,5-dihydro-4H-pyrrolo[3,2-d]pyrimidin-4-one] | 8.68

same assay, conditions: in vitro inhibition of cGMP PDE V; 30 °C, 30 min; read-out: IC50

Row | SMILES | IC50 [nM]
2 | CCCOc1ccc(S(=O)(=O)N2CCN(CCOC(=O)CC)CC2)cc1-c1nc2c(CCC)cn(CC)c2c(=O)[nH]1 [Example 10, 5-Ethyl-2-{5-[4-(2-propionyloxyethyl)piperazin-1-ylsulfonyl]-2-n-propoxyphenyl}-7-n-propyl-3,5-dihydro-4H-pyrrolo[3,2-d]pyrimidin-4-one] | 5.73
3 | CCCOc1ccc(S(=O)(=O)N2CCN(CCOC(=O)CCC)CC2)cc1-c1nc2c(CCC)cn(CC)c2c(=O)[nH]1 [Example 12, 2-{5-[4-(2-Butyryloxyethyl)piperazin-1-ylsulfonyl]-2-n-propoxyphenyl}-5-ethyl-7-n-propyl-3,5-dihydro-4H-pyrrolo[3,2-d]pyrimidin-4-one] | 8.87
4 | CCCOc1ccc(S(=O)(=O)N2CCN(CCOC(C)=O)CC2)cc1-c1nc2c(CCC)cn(CC)c2c(=O)[nH]1 [Example 7, 2-{5-[4-(2-Acetoxyethyl)piperazin-1-ylsulfonyl]-2-n-propoxyphenyl}-5-ethyl-7-n-propyl-3,5-dihydro-4H-pyrrolo[3,2-d]pyrimidin-4-one] | 2.84
5 | CCCOc1ccc(S(=O)(=O)N2CCN(CCOC(=O)c3ccccc3)CC2)cc1-c1nc2c(CCC)cn(CC)c2c(=O)[nH]1 [Example 16, 2-{5-[4-(2-Benzoyloxyethyl)piperazin-1-ylsulfonyl]-2-n-propoxyphenyl}-5-ethyl-7-n-propyl-3,5-dihydro-4H-pyrrolo[3,2-d]pyrimidin-4-one] | 14.4
6 | CCCOc1ccc(S(=O)(=O)N2CCN(CCOC(=O)C(C)C)CC2)cc1-c1nc2c(CCC)cn(CC)c2c(=O)[nH]1 [Example 14, 5-Ethyl-2-{5-[4-(2-isobutyryloxyethyl)piperazin-1-ylsulfonyl]-2-n-propoxyphenyl}-7-n-propyl-3,5-dihydro-4H-pyrrolo[3,2-d]pyrimidin-4-one] | 8.8
7 | CCCOc1ccc(S(=O)(=O)N2CCN(CCOC(=O)OCC)CC2)cc1-c1nc2c(CCC)cn(CC)c2c(=O)[nH]1 [Example 17, 2-{5-[4-(2-Ethoxycarbonyloxyethyl)piperazin-1-ylsulfonyl]-2-n-propoxyphenyl}-5-ethyl-7-n-propyl-3,5-dihydro-4H-pyrrolo[3,2-d]pyrimidin-4-one] | 7.65
8 | CCCOc1ccc(S(=O)(=O)N2CCN(CCOC(C)=O)CC2)cc1-c1nc2c(CCCF)cn(CC)c2c(=O)[nH]1 [Example 19, 2-{5-[4-(2-Acetoxyethyl)piperazin-1-ylsulfonyl]-2-n-propoxyphenyl}-5-ethyl-7-(3-fluoropropyl)-3,5-dihydro-4H-pyrrolo[3,2-d]pyrimidin-4-one] | 1.48
